As usually defined, the IC50 is the midpoint of a concentration-inhibition curve.

The record followed here is US20140057915A1, “KINASE INHIBITORS” (TOPIVERT PHARMA LIMITED, priority 2012, published 2014).

The test system of data set [1] is IL-8 release, d-U937 cells. Nature of the data set: LPS-induced IL-8 release in d-U937 cells. Conditions: Homo sapiens, dU937; Table 4c1; read-out: LPS Induced Release of Cytokine in d-U937 Cells, IL-8 IC50. It counts as cell-based. Put shortly: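 IL-8 release after a 4 hr challenge with LPS (0.1 μg/mL, E. coli 0111:B4) following a 2 hr compound pretreatment. Cells were human U937 monocytes differentiated to macrophage-type with PMA 100 ng/mL for 48–72 hr. Relative 50% effective concentration derived from concentration–response data.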

The test system of data set [2] is ICAM-1 expression, BEAS2B cells. Nature of the data set: Poly I:C-induced ICAM-1 expression in BEAS2B cells. It counts as cell-based. Conditions: Homo sapiens, BEAS-2B; read-out: Poly IC induced ICAM1 in BEAS2B, IC50. An outline of the steps:
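BEAS2B human bronchial epithelial cells pre-incubated 2 h with compound, then transfected with poly I:C (1 μg/mL) plus Oligofectamine. After 18 h, cell-surface ICAM-1 read by cell-based ELISA (A450–655), normalised to Crystal Violet cell number (A595); inhibition calculated against vehicle control at each concentration.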

For another data set, the system named is d-U937 cells. Nature of the data set: Cell viability: MTT assay. It counts as cell-based, human. The note with it: 1 μg/mL. Put shortly:
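Differentiated U937 cells exposed to compound at 1 or 10 μg/mL, either 4 h in 5% FCS or 24 h in 10% FCS RPMI1640. MTT then added for 1 h, formazan dissolved in DMSO and read at 550 nm. Viability loss given as % versus 0.5% DMSO vehicle; apparent gains appear negative.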
Background: Formazan colour is commonly taken as a measure of viable cells.

The next data set deals with cSrc (Homo sapiens, UniProt P12931). In words: c-Src enzyme inhibition (FRET). It counts as biochemical. The note with it: Table 4a1. Put shortly: (§1)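 2 hr RT enzyme + cpd (added solns 4/0.4/0.04/0.004 μg/mL); + FRET peptide (8 μM soln) + ATP soln (c-Src 800 μM, Syk 60 μM), 1 hr; protease development 1 hr; read donor/acceptor emission ratio.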
The target in a further data set is Syk (Homo sapiens, UniProt P43405). Nature of the data set: Syk enzyme inhibition (FRET). It counts as biochemical. The note with it: Table 4a1. Put shortly: as §1
Another data set deals with GSK3α (Homo sapiens, UniProt P49840). In words: GSK 3α enzyme inhibition (FRET), Method 1. It counts as biochemical. The note with it: Table 4a1. Put shortly: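 Z-LYTE FRET format. Enzyme (500 ng/mL stock) + compound (stocks 4–0.004 μg/mL), 2 hr RT; add peptide (8 μM stock) + ATP (40 μM stock), 1 hr; protease 1 hr; read donor/acceptor emission ratio.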
Data set [3] deals with TNFα release, d-U937 cells. Nature of the data set: LPS-induced TNFα release in d-U937 cells. Type of data set: cell-based. The note with it: Homo sapiens, dU937; relative to 10 μg/mL BIRB796; Table 4c1; read-out: LPS Induced Release of Cytokine in d-U937 Cells, TNFα REC50. An outline of the steps: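 U937 cells differentiated with PMA (100 ng/mL, 48–72 hr), pre-treated with compound for 2 hr, then stimulated with E. coli LPS (0.1 μg/mL) for 4 hr. Supernatant cytokine measured by sandwich ELISA; inhibition versus vehicle control, REC50 from concentration-response curve.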

Sequence of cSrc (P12931 whole entry): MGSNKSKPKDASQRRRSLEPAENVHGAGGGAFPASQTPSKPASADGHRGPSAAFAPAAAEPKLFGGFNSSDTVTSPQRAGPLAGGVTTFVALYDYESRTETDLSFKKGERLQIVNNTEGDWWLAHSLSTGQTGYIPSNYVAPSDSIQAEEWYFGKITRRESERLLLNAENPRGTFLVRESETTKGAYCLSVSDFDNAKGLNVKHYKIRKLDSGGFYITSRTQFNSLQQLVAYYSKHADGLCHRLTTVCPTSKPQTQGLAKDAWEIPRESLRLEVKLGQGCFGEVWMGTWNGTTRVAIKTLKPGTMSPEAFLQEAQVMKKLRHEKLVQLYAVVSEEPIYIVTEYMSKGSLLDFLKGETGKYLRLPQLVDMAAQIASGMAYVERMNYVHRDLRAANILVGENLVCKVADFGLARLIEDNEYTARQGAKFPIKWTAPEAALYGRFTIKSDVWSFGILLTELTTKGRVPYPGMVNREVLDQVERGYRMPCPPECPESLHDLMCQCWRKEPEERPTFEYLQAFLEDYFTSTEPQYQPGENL
Sequence of GSK3α (P49840 whole entry): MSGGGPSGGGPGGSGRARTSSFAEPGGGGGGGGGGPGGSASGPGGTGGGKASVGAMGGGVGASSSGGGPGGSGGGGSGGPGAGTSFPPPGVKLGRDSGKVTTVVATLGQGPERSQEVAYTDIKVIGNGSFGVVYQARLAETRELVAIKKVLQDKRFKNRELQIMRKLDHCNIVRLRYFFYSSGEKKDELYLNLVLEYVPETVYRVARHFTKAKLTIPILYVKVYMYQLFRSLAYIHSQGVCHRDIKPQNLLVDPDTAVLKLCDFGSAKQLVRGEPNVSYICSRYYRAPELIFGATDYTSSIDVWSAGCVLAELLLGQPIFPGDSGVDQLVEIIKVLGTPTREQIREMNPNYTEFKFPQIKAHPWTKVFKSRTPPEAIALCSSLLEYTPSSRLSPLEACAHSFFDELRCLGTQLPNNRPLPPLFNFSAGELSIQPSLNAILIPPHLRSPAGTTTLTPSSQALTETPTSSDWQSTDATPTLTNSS

In the case of `COc1ccc(-n2nc(C(C)(C)C)cc2NC(=O)Nc2ccc(Oc3ccnc(Nc4cc(OC)cc(C(N)=O)c4)n3)c3ccccc23)cc1` [Example 41, 3-((4-((4-(3-(3-(tert-butyl)-1-(4-methoxyphenyl)-1H-pyrazol-5-yl)ureido)naphthalen-1-yl)oxy)pyrimidin-2-yl)amino)-5-methoxybenzamide], the IC50 turned out to be 0.4 nM in data set [1]; 2 nM in data set [2]; 10 nM at cSrc; 15 nM against Syk; 1200 nM against GSK3α. Besides, the “Cell viability at time point in d-U937 cells, 4 h” value in the data set with d-U937 cells was “−ve (−ve and +ve indicate that the value is below and above respectively, the no significant effect threshold, defined as 30% inhibition at 1 μg/mL at the time point indicated)”. Further, the “Cell viability at time point in d-U937 cells, 24 h” value (from here on “Cell viability at time point … 24 h”) in the data set on d-U937 cells was “−ve (−ve and +ve indicate that the value is below and above respectively, the no significant effect threshold, defined as 30% inhibition at 1 μg/mL at the time point indicated)”. In addition, the EC50 in data set [3] was determined as 0.4 nM.

As for `COc1cc(Nc2nccc(Oc3ccc(NC(=O)Nc4cc(C(C)(C)C)nn4-c4ccc(C)cc4)c4ccccc34)n2)cc(C(=O)NCCN(C)C)c1` [Example 43, 3-((4-((4-(3-(3-(tert-butyl)-1-(p-tolyl)-1H-pyrazol-5-yl)ureido)naphthalen-1-yl)oxy)pyrimidin-2-yl)amino)-N-(2-(dimethylamino)ethyl)-5-methoxybenzamide], the IC50 in data set [1] amounted to 0.6 nM; in data set [2], 0.4 nM; against cSrc, 2 nM; on Syk, 7 nM; against GSK3α, 197 nM. Besides, the “Cell viability at time point in d-U937 cells, 4 h” value in the data set on d-U937 cells is “−ve (−ve and +ve indicate that the value is below and above respectively, the no significant effect threshold, defined as 30% inhibition at 1 μg/mL at the time point indicated)”. Further, the “Cell viability at time point … 24 h” value in the data set with d-U937 cells was “−ve (−ve and +ve indicate that the value is below and above respectively, the no significant effect threshold, defined as 30% inhibition at 1 μg/mL at the time point indicated)”. In data set [3], the EC50 was found to be 0.2 nM.

`COc1ccc(-n2nc(C(C)C)cc2NC(=O)Nc2ccc(Oc3ccnc(Nc4cc(C(=O)NCCN5CCOCC5)cc(C(F)(F)F)c4)n3)c3ccccc23)cc1` [Example 47, 3-((4-((4-(3-(3-isopropyl-1-(4-methoxyphenyl)-1H-pyrazol-5-yl)ureido)naphthalen-1-yl)oxy)pyrimidin-2-yl)amino)-N-(2-morpholinoethyl)-5-(trifluoromethyl)benzamide]: the IC50 in data set [1] was determined as 1.4 nM; in data set [2], 3.6 nM; against cSrc, 5 nM; against Syk it was 12 nM; at GSK3α, 2850 nM. Further, the “Cell viability at time point in d-U937 cells, 4 h” value with d-U937 cells was “−ve (−ve and +ve indicate that the value is below and above respectively, the no significant effect threshold, defined as 30% inhibition at 1 μg/mL at the time point indicated)”. Also, the “Cell viability at time point … 24 h” value with d-U937 cells is “−ve (−ve and +ve indicate that the value is below and above respectively, the no significant effect threshold, defined as 30% inhibition at 1 μg/mL at the time point indicated)”. In addition, the EC50 in data set [3] worked out at 0.8 nM.

With `COc1cc(Nc2nccc(Oc3ccc(NC(=O)Nc4cc(C(F)(F)F)nn4-c4ccc(C)cc4)c4ccccc34)n2)cc(C(=O)NCCN2CCOCC2)c1` [Example 48, 3-methoxy-N-(2-morpholinoethyl)-5-((4-((4-(3-(1-(p-tolyl)-3-(trifluoromethyl)-1H-pyrazol-5-yl)ureido)naphthalen-1-yl)oxy)pyrimidin-2-yl)amino)benzamide], the IC50 in data set [1] is 20.6 nM; in data set [2] it was 32.3 nM; at cSrc it was 5 nM; at Syk it was 78 nM; against GSK3α, greater than 12800 nM. Also, the “Cell viability at time point in d-U937 cells, 4 h” value with d-U937 cells was “−ve (−ve and +ve indicate that the value is below and above respectively, the no significant effect threshold, defined as 30% inhibition at 1 μg/mL at the time point indicated)”. In addition, in the data set with d-U937 cells, the “Cell viability at time point … 24 h” value is “−ve (−ve and +ve indicate that the value is below and above respectively, the no significant effect threshold, defined as 30% inhibition at 1 μg/mL at the time point indicated)”. The EC50 in data set [3] was found to be 3.5 nM.

Turning to `COc1cc(Nc2nccc(Oc3ccc(NC(=O)Nc4cc(C(C)(C)C)nn4-c4ccc(C)cc4)c4ccccc34)n2)cc(C(=O)NCCN2CCOCC2)c1` [Example 52, 3-((4-((4-(3-(3-(tert-butyl)-1-(p-tolyl)-1H-pyrazol-5-yl)ureido)naphthalen-1-yl)oxy)pyrimidin-2-yl)amino)-5-methoxy-N-(2-morpholinoethyl)benzamide], the IC50 in data set [1] was 1.5 nM; in data set [2], 5 nM; at cSrc, 3 nM; against Syk, 6 nM; against GSK3α, 247 nM. The “Cell viability at time point in d-U937 cells, 4 h” value in the data set with d-U937 cells was “−ve (−ve and +ve indicate that the value is below and above respectively, the no significant effect threshold, defined as 30% inhibition at 1 μg/mL at the time point indicated)”. In addition, the “Cell viability at time point … 24 h” value in the data set with d-U937 cells is “−ve (−ve and +ve indicate that the value is below and above respectively, the no significant effect threshold, defined as 30% inhibition at 1 μg/mL at the time point indicated)”. In addition, the EC50 in data set [3] was 0.3 nM.

In the case of `COCCOc1cccc(-n2nc(C(C)(C)C)cc2NC(=O)Nc2ccc(Oc3ccnc(Nc4cc(OC)cc(C(=O)NCCN5CCOCC5)c4)n3)c3ccccc23)c1` [Example 55, 3-((4-((4-(3-(3-(tert-butyl)-1-(3-(2-methoxyethoxy)phenyl)-1H-pyrazol-5-yl)ureido)naphthalen-1-yl)oxy)pyrimidin-2-yl)amino)-5-methoxy-N-(2-morpholinoethyl)benzamide], the IC50 in data set [1] is 2.1 nM; in data set [2], 5.8 nM; at cSrc it was 3 nM; against Syk, 4 nM; against GSK3α it was 281 nM. The “Cell viability at time point in d-U937 cells, 4 h” value with d-U937 cells was “−ve (−ve and +ve indicate that the value is below and above respectively, the no significant effect threshold, defined as 30% inhibition at 1 μg/mL at the time point indicated)”. The “Cell viability at time point … 24 h” value in the data set on d-U937 cells was “−ve (−ve and +ve indicate that the value is below and above respectively, the no significant effect threshold, defined as 30% inhibition at 1 μg/mL at the time point indicated)”. The EC50 in data set [3] amounted to 3.3 nM.

Regarding `COc1cc(Nc2nccc(Oc3ccc(NC(=O)Nc4cc(C(C)C)nn4-c4ccc(C)c(C)c4)c4ccccc34)n2)cc(C(=O)NCCN2CCOCC2)c1` [Example 56, 3-((4-((4-(3-(1-(3,4-dimethylphenyl)-3-isopropyl-1H-pyrazol-5-yl)ureido)naphthalen-1-yl)oxy)pyrimidin-2-yl)amino)-5-methoxy-N-(2-morpholinoethyl)benzamide], the IC50 in data set [1] is 1.7 nM; in data set [2] it was 85.4 nM; at cSrc, 5 nM; on Syk, 12 nM; at GSK3α, greater than 13000 nM. For the same compound, the “Cell viability at time point in d-U937 cells, 4 h” value in the data set on d-U937 cells is “−ve (−ve and +ve indicate that the value is below and above respectively, the no significant effect threshold, defined as 30% inhibition at 1 μg/mL at the time point indicated)”. Besides, in the data set with d-U937 cells, the “Cell viability at time point … 24 h” value was “−ve (−ve and +ve indicate that the value is below and above respectively, the no significant effect threshold, defined as 30% inhibition at 1 μg/mL at the time point indicated)”. Besides, in data set [3], the EC50 amounted to 1.4 nM.
